Test results taken from patent US9958439B2, “Carbohydrate detection” (RICHTER LIFE SCIENCE DEVELOPMENT AB, priority 2012, dated 2018).
Like-named read-outs stand apart in the source and are kept apart here.

How the values were obtained:
[1] = system: biofilm of S. enteritidis wt strain 3934 and isogenic mutants ΔbscA, ΔcsgA, ΔcsgD; test: LCO assay for fluorescence confocal analysis of biofilm and biofilm morphology; type: cell-based, Salmonella enteritidis; conditions: 2 μg/ml LCO, fixed and washed cover-slip biofilm
Source text: Fluorescence confocal analysis (left side) and phase contrast analysis (right side) of the same slide are shown side by side.
Glass cover-slips were introduced to the wells of a 6-well plate (according to the set-up shown in FIG. 2A) to provide surfaces for biofilm formation, which at the end of experiment could be easily removed for microscope analysis. To prepare for the biofilm experiment, individual cultures of S. enteritidis wt strain 3934 and isogenic mutants ΔbscA, ΔcsgA, and ΔcsgD were grown in LB medium in flasks overnight. Each culture was diluted 100-fold in fresh LB and cultivated in a shaking incubator (230 rpm) at 37° C. to OD600=0.6. Cultures were diluted to a culture density of 10^5 CFU/ml in LB without salt and dispensed into the cover-slip containing 6 well plates in 8 ml aliquots. After incubating the plates for 48 h at 28° C., glass cover-slips were removed and washed twice with PBS before fixation in 4 ml of 4% formaldehyde for 1 h. […] PBS functioned as the negative control, used to assess the level of auto-fluorescence. Treated slides were then washed twice with PBS and mounted with Vectashield® for fluorescence-based confocal laser scanning microscopy analysis. Specifically, the edge of the biofilm formed at the liquid air interface was visualized using the appropriate fluorescence filters. […] The right side is an overlay of an optical inspection of bacterial presence by phase contrast with LCO fluorescence. Phase contrast is a traditional method for visual confirmation of biofilm attachment on surfaces.

[2] = system: biofilm (curli, cellulose) of S. enteritidis wt strain 3934 and isogenic mutants; conditions: 2 μg/ml LCO, unprocessed cultures, excitation 300-500 nm, emission 545 nm
Protocol: A fresh overnight culture of the clinically derived S. enteritidis wt strain 3934 and isogenic mutants (ΔbscA; ΔcsgA and ΔcsgD) was inoculated into fresh LB and cultivated at 37° C. to OD600=0.6. […] 50 μl of each culture was next inoculated in triplicates into separate wells of 96-well plates and incubated at 28° C. for 48 hours.
After removing the biofilm cultures from the incubator, no processing steps were implemented before the detection of LCO signals. […] Emission spectra for curli bound LCOs was collected by reading the emission signal between 500-700 nm when the sample was excited at 405 nm. Emission spectra for cellulose bound LCOs was collected by reading the emission signal between 520-700 nm when the sample was excited at 500 nm.

[3] = for RFU change (Correlation analysis): probe-specific excitation λ, emission 545 nm; for carbohydrate can be detected and/or differentiated by the LCO: conclusion from change in signal magnitude and/or shift in λmax; for Gradient Parameters (gradient of regression line) / Linear relationship / Quality of Gradient: linear regression
Procedure, shortened: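 LCO probes at 3 μM mixed with serial twofold carbohydrate dilutions in dH2O (10–0.039 or 5–0.019 mg/ml, depending on carbohydrate). Excitation scanned 300–500 nm, emission read at 545 nm; detection defined as reproducible shift in λmax and/or RFU relative to negative control, with linear regression of RFU against concentration.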

[4] = Procedure, shortened: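 LCO probes (3 μM) were added to serial two-fold dilutions of carbohydrate suspensions in dH2O, with excitation scanned 300–500 nm and emission at 545 nm. Detection was a reproducible λmax and/or RFU change versus no-carbohydrate control. RFU was regressed linearly against concentration at the λmax or the lowest-background excitation.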
[5] = for RFU change (Correlation analysis) / RFU change (Signal deviation with increasing [Carbohydrate]) / λmax change: 3 μM probe; for RFU change (Correlation analysis): probe-specific excitation λ, emission 545 nm; for RFU change (Signal deviation with increasing [Carbohydrate]) / λmax change: spectral analysis, Excitation 300-500, Emission 545; for carbohydrate can be detected and/or differentiated by the LCO: conclusion from change in signal magnitude and/or shift in λmax; for Gradient Parameters (gradient of regression line) / Linear relationship / Quality of Gradient: linear regression
Procedure, shortened: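 Each LCO probe at 3 μM was added to two-fold serial dilutions of carbohydrate in dH2O (10–0.039 mg/ml for β-1,3-glucan, cellulose, chitin; 5–0.019 mg/ml for the others), run in triplicate. Excitation spectra were scanned 300–500 nm with emission at 545 nm. Detection was a reproducible λmax and/or RFU shift versus negative control, with linear regression of RFU against concentration.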

[6] = remark: listed apart in the source
Procedure, shortened: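 3 μM of each LCO probe was added to serial two-fold carbohydrate dilutions in water (10–0.039 or 5–0.019 mg/ml). Excitation spectra were scanned 300–500 nm with emission at 545 nm, in triplicate. Detection was defined as a reproducible shift in λmax and/or RFU versus negative control, with linear regression of RFU against concentration.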

[7] = for RFU change (Correlation analysis): probe-specific excitation λ, emission 545 nm; for Gradient Parameters (gradient of regression line) / Quality of Gradient: linear regression
Procedure, shortened: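 LCO probes at 3 μM mixed with serial two-fold dilutions of carbohydrate in dH2O (10–0.039 or 5–0.019 mg/ml, depending on carbohydrate), in triplicate. Excitation scanned 300–500 nm or fixed per probe (λmax or lowest background), emission at 545 nm. Detection taken as reproducible λmax/RFU shift vs no-carbohydrate control; RFU regressed linearly on concentration.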

[8] = remark: listed apart in the source
Procedure, shortened: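 LCO probes at 3 μM mixed with serial two-fold carbohydrate dilutions in water (10–0.039 or 5–0.019 mg/ml), run in triplicate. Excitation scanned 300–500 nm with emission at 545 nm; detection based on reproducible λmax or RFU shift against the no-carbohydrate control, with linear regression of RFU on concentration.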

[9] = Glycogen 5-0.019 mg/ml, 3 μM probe, spectral analysis, Excitation 300-500, Emission 545
[10] = sodium alginate concentration vs RFU, linear regression
[11] = β-1,3-glucan concentration vs RFU
[12] = Chondroitin Sulfate A 5-0.019 mg/ml, 3 μM probe, spectral analysis, Excitation 300-500, Emission 545
[13] = Chondroitin Sulfate A concentration vs RFU, linear regression
[14] = Cellulobiose 5-0.019 mg/ml, 3 μM probe, spectral analysis, Excitation 300-500, Emission 545
[15] = cellulobiose concentration vs RFU
[16] = glucose concentration vs RFU, linear regression

hepta Hydrogen Thiophene Acetic Acid [h-HTAA]
fluorescent signal from the LCO on biofilm versus phase contrast microscopy [1]: coincides with visible bacteria aggregates | differentiation of biofilm morphologies of isogenic mutants by excitation spectra [2]: did not differentiate biofilm morphologies

Cl.Cl.N=C(N)NCCC[C@H](NC(=O)Cc1cc(-c2cccs2)sc1-c1ccc(-c2sc(-c3cccs3)cc2CC(=O)N[C@@H](CCCNC(=N)N)C(=O)O)s1)C(=O)O [pHTA-Arg, penta Hydrogen Thiophene Acetic acid Arginine]
RFU change (Correlation analysis) ([3]; Glycogen 5-0.019 mg/ml, 3 μM probe): Increases | RFU change (Signal deviation with increasing [Carbohydrate]) [3, 9]: Increases | λmax change [3, 9]: Redshift | carbohydrate can be detected and/or differentiated by the LCO ([3]; Glycogen): can be detected and/or differentiated | RFU change (Correlation analysis) ([3]; Heparin 5-0.019 mg/ml, 3 μM probe): Increases | RFU change (Signal deviation with increasing [Carbohydrate]) ([3]; Heparin 5-0.019 mg/ml, 3 μM probe, spectral analysis, Excitation 300-500, Emission 545): Increases | carbohydrate can be detected and/or differentiated by the LCO ([3]; Heparin): can be detected and/or differentiated | Gradient Parameters (gradient of regression line) ([3]; glycogen concentration vs RFU): 72.8 ± 13.4 | Linear relationship ([3]; glycogen concentration vs RFU): Significant | Quality of Gradient ([3]; glycogen concentration vs RFU): Positive | Gradient Parameters (gradient of regression line) ([3]; heparin concentration vs RFU): 29.3 ± 8.6 | Linear relationship ([3]; heparin concentration vs RFU): Significant | Quality of Gradient ([3]; heparin concentration vs RFU): Positive | Sensitivity ([3]; to glycogen): Yes | Sensitivity ([3]; to heparin): Yes | RFU change (Correlation analysis) ([4]; Sodium alginate 5-0.019 mg/ml, 3 μM probe, probe-specific excitation λ, emission 545 nm): Increases | RFU change (Signal deviation with increasing [Carbohydrate]) ([4]; Sodium alginate 5-0.019 mg/ml, 3 μM probe, spectral analysis, Excitation 300-500, Emission 545): Increases | carbohydrate can be detected and/or differentiated by the LCO ([4]; Sodium alginate, conclusion from change in signal magnitude and/or shift in λmax): can be detected and/or differentiated | Gradient Parameters (gradient of regression line) [4, 10]: 78.6 ± 18.6 | Linear relationship [4, 10]: Significant | Quality of Gradient [4, 10]: Positive | Sensitivity ([4]; to sodium alginate): Yes | RFU change (Correlation analysis) ([5]; Cellulose 10-[…]): Increase | RFU change (Signal deviation with increasing [Carbohydrate]) ([5]; Cellulose 10-[…]): Increase | λmax change ([5]; Cellulose 10-[…]): Redshift | carbohydrate can be detected and/or differentiated by the LCO ([5]; Cellulose): can be detected and/or differentiated | RFU change (Correlation analysis) ([5]; Chitin 10-[…]): Increases | RFU change (Signal deviation with increasing [Carbohydrate]) ([5]; Chitin 10-[…]): Increases | λmax change ([5]; Chitin 10-[…]): Redshift | carbohydrate can be detected and/or differentiated by the LCO ([5]; Chitin): can be detected and/or differentiated | Gradient Parameters (gradient of regression line) ([5]; cellulose concentration vs RFU): 194.0 ± 29.9 | Linear relationship ([5]; cellulose concentration vs RFU): Significant | Quality of Gradient ([5]; cellulose concentration vs RFU): Positive | Gradient Parameters (gradient of regression line) ([5]; chitin concentration vs RFU): 338.2 ± 19.4 | Linear relationship ([5]; chitin concentration vs RFU): Significant | Quality of Gradient ([5]; chitin concentration vs RFU): Positive | Sensitivity ([5]; to cellulose): Yes | Sensitivity ([5]; to chitin): Yes | Sensitivity ([5]; to β-1,3-glucan): Yes | carbohydrate can be detected and/or differentiated by the LCO ([5]; β-1,3-Glucan): can be detected and/or differentiated | RFU change (Correlation analysis) ([5]; β-1,3-glucan 10-[…]): Increase | RFU change (Signal deviation with increasing [Carbohydrate]) ([5]; β-1,3-glucan 10-[…]): Increase | Gradient Parameters (gradient of regression line) [5, 11]: 119.1 ± 16.69 | Quality of Gradient [5, 11]: Positive | RFU change (Correlation analysis) ([6]; Chondroitin Sulfate A 5-0.019 mg/ml, 3 μM probe, probe-specific excitation λ, emission 545 nm): Increases | RFU change (Signal deviation with increasing [Carbohydrate]) [6, 12]: Increases | λmax change [6, 12]: No change | Gradient Parameters (gradient of regression line) [6, 13]: 143.4 ± 10.01 | Linear relationship [6, 13]: Significant | Quality of Gradient [6, 13]: Positive | carbohydrate can be detected and/or differentiated by the LCO ([6]; Chondroitin sulfate A, conclusion from change in signal magnitude and/or shift in λmax): can be detected and/or differentiated | Sensitivity ([6]; to Chondroitin Sulfate A): Yes | RFU change (Correlation analysis) ([7]; Amylose 5-0.019 mg/ml, 3 μM probe): Unclear | RFU change (Signal deviation with increasing [Carbohydrate]) ([7]; Amylose 5-0.019 mg/ml, 3 μM probe, spectral analysis, Excitation 300-500, Emission 545): Unclear | RFU change (Correlation analysis) ([7]; Cellulobiose 5-0.019 mg/ml, 3 μM probe): Unclear | RFU change (Signal deviation with increasing [Carbohydrate]) [7, 14]: Unclear | λmax change [7, 14]: No change | Gradient Parameters (gradient of regression line) ([7]; amylose concentration vs RFU): −28.4 ± 21.6 | Quality of Gradient ([7]; amylose concentration vs RFU): Horizontal | Gradient Parameters (gradient of regression line) [7, 15]: −1.30 ± 12.9 | Quality of Gradient [7, 15]: Horizontal | Sensitivity ([7]; to amylose): No | Sensitivity ([7]; to cellulobiose): No | RFU change (Correlation analysis) ([8]; Glucose 5-0.019 mg/ml, 3 μM probe, probe-specific excitation λ, emission 545 nm): Unclear | RFU change (Signal deviation with increasing [Carbohydrate]) ([8]; Glucose 5-0.019 mg/ml, 3 μM probe, spectral analysis, Excitation 300-500, Emission 545): Increases | Gradient Parameters (gradient of regression line) [8, 16]: 17.9 ± 38.1 | Quality of Gradient [8, 16]: Horizontal | Sensitivity ([8]; to glucose): No
